Among the test systems are EKVX; K562; SW-620; NCI-H23; SNB-19; UACC-62; HCT-15; HOP-62; HL-60; NCI-H226; OVCAR-4; ACHN; SK-MEL-5; T47D; SF-268; OVCAR-8; SF-539; NCI/ADR-RES; MDA-N.
Holding throughout (test): NCI-60 cell line screen, 48 h

This is an account of results in ChEMBL document CHEMBL1201862, “PubChem BioAssay data set” (2004).

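Each compound was tested at five concentrations against cells in 96-well plates for 48 hours. Abbreviation: GI50, concentration required for 50% inhibition of growth.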 Calls of active or inactive are those of the source. No stated cut-off is given here; in the data, active = GI50 up to about 1.1 µM and inactive = higher. Where only a bound is given, the exact number is not on record here.

For `COC(=O)C1=C(C)NC(=S)NC1c1ccc(N(CCCl)CCCl)cc1Cl` (stereo not given), the GI50 in the test with EKVX is 2.11 µM (inactive); in the test on K562, 8.99 µM (inactive); with SW-620 it was 33 µM (inactive); in the test with NCI-H23, 5.45 µM (inactive); in the test on SNB-19, 49 µM (inactive); with UACC-62, 3.05 µM (inactive). The GI50 was 9.91 µM with HCT-15; 73.6 µM (inactive) with HOP-62; 39.4 µM (inactive) in the test on HL-60; 3.56 µM (inactive) in the test with NCI-H226; 16.3 µM (inactive) in the test with OVCAR-4; 11 µM (inactive) with ACHN. For the same compound, the GI50 with SK-MEL-5 was 1.82 µM (inactive); with T47D, 6.71 µM (inactive); in the test on SF-268, 23.9 µM (inactive); in the test on OVCAR-8 it was 31 µM (inactive); in the test on SF-539, > 72.6 µM (inactive); in the test with NCI/ADR-RES, 37 µM (inactive).
With `O=C(/C=C/c1ccc(O)c(O)c1O)OCCc1ccccc1`, the GI50 with EKVX was > 100 µM (inactive); in the test on K562, 11.6 µM (inactive); in the test on SW-620, 20.9 µM (inactive); in the test with NCI-H23 it was 22.9 µM (inactive); in the test on SNB-19, 49.9 µM (inactive); in the test on UACC-62, 34 µM (inactive). Further, the GI50 in the test on HCT-15 is 23.4 µM; in the test on HOP-62 it was 26.2 µM (inactive); with HL-60 it was 22 µM (inactive); in the test with NCI-H226 it was 27.7 µM (inactive); in the test on OVCAR-4, 15.9 µM (inactive); with ACHN, 39.2 µM (inactive). For the same compound, the GI50 was > 100 µM (inactive) with SK-MEL-5; 13 µM (inactive) in the test on MDA-N; 82.2 µM (inactive) in the test on T47D; 32.1 µM (inactive) in the test on SF-268; 37.3 µM (inactive) in the test on SF-539; 29.8 µM (inactive) in the test with NCI/ADR-RES.
Take `CC1=C(C(=O)NCc2ccccc2)C(c2ccccc2O)C(C(=O)NCc2ccccc2)=C(C)N1`: the GI50 was 22.2 µM (inactive) in the test on EKVX; 36.1 µM (inactive) with K562; 17.7 µM (inactive) in the test with SW-620; 17.1 µM (inactive) with NCI-H23; 19.2 µM (inactive) in the test on SNB-19; 16.1 µM (inactive) in the test with UACC-62. For the same compound, the GI50 in the test on HCT-15 was 13.6 µM; in the test with HOP-62, 19.9 µM (inactive); in the test on HL-60 it was 17.3 µM (inactive); in the test with NCI-H226, 16.6 µM (inactive); with OVCAR-4 it was 17 µM (inactive); in the test with ACHN, 16.4 µM (inactive). The GI50 in the test with SK-MEL-5 was 15 µM (inactive); in the test with SF-268, 22.9 µM (inactive); with OVCAR-8, 18.7 µM (inactive); in the test with SF-539 it was 18.4 µM (inactive).
As for `CC(=O)OC1COC(N2C(=O)/C(=N\Nc3ccc([N+](=O)[O-])cc3)c3cc(Br)c([N+](=O)[O-])cc32)C(OC(C)=O)C1OC(C)=O` (stereo not given), the GI50 is 62.7 µM (inactive) in the test on EKVX; 41 µM (inactive) with K562; 46 µM (inactive) in the test on SW-620; 31.6 µM (inactive) in the test with NCI-H23; > 100 µM (inactive) in the test on SNB-19; 15.3 µM (inactive) in the test with UACC-62. Further, the GI50 in the test on HCT-15 is 33 µM; in the test on HOP-62, 38.5 µM (inactive); in the test with HL-60, 65.6 µM (inactive); in the test on NCI-H226, > 100 µM (inactive); in the test with OVCAR-4 it was 32.9 µM (inactive); in the test with ACHN it was 21.6 µM (inactive). Further, the GI50 in the test with SK-MEL-5 is 24.1 µM (inactive); in the test with SF-268 it was 26.4 µM (inactive); with OVCAR-8, > 100 µM (inactive); with SF-539, 68.2 µM (inactive).
In the case of `Cc1ccc(S(=O)OCc2c(C)c(C)c(COS(=O)c3ccc(C)cc3)c(C)c2C)cc1` (stereo not given), the GI50 is > 100 µM (inactive) in the test with EKVX; 65.5 µM (inactive) with K562; > 100 µM (inactive) in the test with SW-620; > 100 µM (inactive) in the test on NCI-H23; > 100 µM (inactive) with SNB-19; > 100 µM (inactive) with UACC-62. Moreover, the GI50 is greater than 100 µM with HCT-15; > 100 µM (inactive) in the test on HOP-62; > 100 µM (inactive) in the test on HL-60; > 100 µM (inactive) with NCI-H226; > 100 µM (inactive) in the test with OVCAR-4; > 100 µM (inactive) in the test with ACHN. Further, the GI50 in the test on SK-MEL-5, in the test with SF-268, in the test on OVCAR-8 and with SF-539 was > 100 µM (inactive) throughout.
On to `O=c1[nH]c(=O)n(COCc2ccccc2)c2ccc([N+](=O)[O-])cc12`, for which the GI50 in the test on EKVX is > 100 µM (inactive); in the test with K562 it was > 100 µM (inactive); with SW-620, > 100 µM (inactive); in the test with UACC-62 it was > 100 µM (inactive); in the test with HCT-15 it was greater than 100 µM; with HL-60, > 100 µM (inactive). Besides, the GI50 in the test with NCI-H226 was > 100 µM (inactive); in the test on OVCAR-4, 56.5 µM (inactive); in the test on ACHN, 25.6 µM (inactive); in the test with SK-MEL-5, > 100 µM (inactive); with MDA-N, > 100 µM (inactive); in the test on OVCAR-8, 35.2 µM (inactive). The values for the GI50 in the test on SF-539 and with NCI/ADR-RES were > 100 µM (inactive) and 4.85 µM (inactive), respectively.
Consider `N#CCN1CCOCCOCCN(CC#N)CCOCCOCC1`, for which the GI50 in the test with EKVX, with K562, with SW-620, in the test on NCI-H23, in the test on SNB-19 and in the test with UACC-62 was > 100 µM (inactive) in each case. Moreover, the GI50 in the test on HCT-15 was greater than 100 µM; in the test with HOP-62, > 100 µM (inactive); with HL-60, > 100 µM (inactive); in the test on NCI-H226, > 100 µM (inactive); in the test with OVCAR-4 it was > 100 µM (inactive); in the test on ACHN, > 100 µM (inactive). Further, the GI50 in the test on SK-MEL-5, in the test with SF-268, with OVCAR-8 and in the test with SF-539 was > 100 µM (inactive) in each case.
For `N/N=C1/CCCc2nonc21`, the GI50 in the test on EKVX is > 100 µM (inactive); in the test on K562, > 100 µM (inactive); in the test with SW-620, > 100 µM (inactive); in the test with NCI-H23, > 100 µM (inactive); with UACC-62 it was > 100 µM (inactive); in the test with HCT-15, greater than 100 µM. Further, the GI50 in the test with HOP-62, in the test on HL-60, with OVCAR-4, in the test with ACHN, in the test with SK-MEL-5 and in the test with MDA-N was > 100 µM (inactive) each time. Also, the GI50 in the test on T47D, in the test with SF-268, in the test with OVCAR-8, in the test on SF-539 and with NCI/ADR-RES was > 100 µM (inactive) throughout.
In the case of `O=[N+]([O-])C(/C=N/Nc1ccccc1)/C=N/Nc1ccccc1`, the GI50 with EKVX, in the test on K562, in the test on SW-620, in the test with NCI-H23, with SNB-19 and with UACC-62 was > 100 µM (inactive) throughout. Moreover, the GI50 in the test with HCT-15 is greater than 100 µM; in the test with HOP-62, > 100 µM (inactive); in the test with HL-60, > 100 µM (inactive); with NCI-H226 it was > 100 µM (inactive); in the test with OVCAR-4, > 100 µM (inactive); in the test with ACHN it was > 100 µM (inactive). Further, the GI50 with SK-MEL-5, in the test on SF-268, with OVCAR-8 and in the test on SF-539 was > 100 µM (inactive) throughout.
`Cc1cn(C2CC(N(O)C(N)=O)C(CO)O2)c(=O)[nH]c1=O` (stereo not given): the GI50 is > 100 µM (inactive) with K562; > 100 µM (inactive) in the test with SW-620; > 100 µM (inactive) with NCI-H23; > 100 µM (inactive) in the test on SNB-19; > 100 µM (inactive) in the test on UACC-62; greater than 100 µM in the test with HCT-15. The GI50 in the test on HOP-62, in the test on OVCAR-4, with ACHN, with SK-MEL-5, in the test with MDA-N and with T47D was > 100 µM (inactive) throughout. The GI50 in the test on SF-268, in the test with OVCAR-8, with SF-539 and with NCI/ADR-RES was > 100 µM (inactive) throughout.
Turning to `CCOP(=O)(OCC)C(c1ccccc1)N(C(=O)NC(F)(F)F)c1cccc(F)c1` (stereo not given), the GI50 with EKVX is 94.8 µM (inactive); in the test with K562, 63.8 µM (inactive); with SW-620, > 100 µM (inactive); in the test on NCI-H23, > 100 µM (inactive); in the test on SNB-19 it was > 100 µM (inactive); in the test with HCT-15, 81.5 µM. Moreover, the GI50 in the test on HOP-62, in the test with HL-60, in the test on NCI-H226, in the test on ACHN, in the test on SK-MEL-5 and in the test on MDA-N was > 100 µM (inactive) in each case. For the same compound, the GI50 is > 100 µM (inactive) in the test on SF-268, > 100 µM (inactive) with OVCAR-8, > 100 µM (inactive) in the test on SF-539 and 58.9 µM (inactive) in the test on NCI/ADR-RES.
`C#CC1/C(=C\C(=O)OC)CCCC1O` (stereo not given): the GI50 with EKVX, with K562, in the test on SW-620, with NCI-H23, with SNB-19 and in the test on UACC-62 was > 100 µM (inactive) in each case. In addition, the GI50 is greater than 100 µM in the test on HCT-15; > 100 µM (inactive) with HOP-62; > 100 µM (inactive) in the test on HL-60; > 100 µM (inactive) in the test with NCI-H226; > 100 µM (inactive) in the test with OVCAR-4; > 100 µM (inactive) with ACHN. Besides, the GI50 in the test on SK-MEL-5, with SF-268, in the test with OVCAR-8 and in the test on SF-539 was > 100 µM (inactive) in each case.
